According to patent publication US20260184687A1, “DIHYDROINDENE DERIVATIVES AS MALT1 INHIBITORS” (C4X Discovery Limited, priority 2022, published 2026):

Assays:
[1] = target: T1, FL hMALT1 enzyme (Homo sapiens, UniProt Q9UDY8); experiment: biochemical;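 note: Cell-free protease assay: enzyme preincubated with compound 30 min at room temperature, then cleavage of fluorogenic Ac-LVSR-AMC substrate (100 µM) tracked by fluorescence (ex 360/em 460 nm)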
T1 sequence (Q9UDY8 1-824): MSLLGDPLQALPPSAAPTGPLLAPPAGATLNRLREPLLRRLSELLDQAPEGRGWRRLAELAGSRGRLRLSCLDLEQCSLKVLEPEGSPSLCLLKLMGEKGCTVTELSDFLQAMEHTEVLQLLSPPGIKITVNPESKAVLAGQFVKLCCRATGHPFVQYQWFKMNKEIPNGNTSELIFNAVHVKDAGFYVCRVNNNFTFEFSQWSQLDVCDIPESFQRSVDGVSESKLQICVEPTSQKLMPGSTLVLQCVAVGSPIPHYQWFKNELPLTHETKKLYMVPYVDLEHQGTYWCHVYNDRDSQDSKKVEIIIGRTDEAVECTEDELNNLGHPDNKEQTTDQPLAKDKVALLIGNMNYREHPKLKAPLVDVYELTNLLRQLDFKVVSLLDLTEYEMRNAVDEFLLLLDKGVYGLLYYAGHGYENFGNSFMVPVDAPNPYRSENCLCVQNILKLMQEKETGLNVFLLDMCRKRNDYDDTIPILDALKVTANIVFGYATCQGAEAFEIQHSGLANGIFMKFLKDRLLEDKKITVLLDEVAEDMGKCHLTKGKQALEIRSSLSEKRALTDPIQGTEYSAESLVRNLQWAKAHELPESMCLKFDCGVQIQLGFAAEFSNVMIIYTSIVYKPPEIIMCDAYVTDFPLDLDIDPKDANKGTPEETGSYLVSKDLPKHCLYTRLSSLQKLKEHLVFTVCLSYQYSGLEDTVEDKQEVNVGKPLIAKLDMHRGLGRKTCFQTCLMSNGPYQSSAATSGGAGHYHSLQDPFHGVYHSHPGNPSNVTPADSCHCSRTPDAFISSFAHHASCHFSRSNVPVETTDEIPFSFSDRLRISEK

[2] = tested on: IL-2 release from stimulated Jurkat cells; experiment: Human IL-2 Release Phenotypic Assay (Assay 3); assay type: cell-based; details: Jurkat cells (clone E6-1), 200 ng/mL PMA + 300 ng/mL ionomycin, IL-2 by ELISA
Experimental: This assay measured the inhibition by MALT1 inhibitors of the IL-2 release from stimulated Jurkat cells, a human immortalized T lymphocyte cell line. IL-2 production from Jurkat cells is regulated by activation of NFκB signalling, which is in turn regulated by MALT1 protease activity.
Jurkat cells (clone E6-1, ATCC) were cultured in RPMI1640 supplemented with 10% (v/v) FBS and 1% (v/v) penicillin/streptomycin (100× liquid stocks). Cells were seeded in 96-well white tissue culture-treated plates (Perkin Elmer) at 50 000 cells/well and incubated overnight at 37° C., 5% CO2. Test compounds in DMSO at half-log dilutions were added to the cells and incubated for 30 mins. Final DMSO concentration was 0.5%. Cells were then stimulated with 200 ng/mL PMA+300 ng/mL ionomycin and incubated for 48 hours. […] IC50 values were calculated using GraphPad Prism using 4-parameter non-linear regression curve fit.

For `CN(C(=O)[C@H]1C[C@H](O)C1)[C@@H](c1ccc(NC2Cc3ccc(Cl)c(F)c3C2)cn1)C(F)(F)F` (single isomer, unassigned) [Example 374], the IC50 [1] was 50 nM and the IC50 ([2]; Homo sapiens, Jurkat, 48 h) was 230 nM.

Work on `CN(C(=O)C1CCS(=O)(=O)CC1)[C@@H](c1ccc(NC2Cc3ccc(F)c(F)c3C2)cn1)C(F)(F)F` (single isomer, unassigned) [Example 262] yielded an IC50 [1] of 2680 nM and an IC50 ([2]; 48 hours) of 7700 nM.

`CNC(=O)N1CC(C(=O)N(C)[C@@H](c2ccc(NC3Cc4ccc(Cl)c(Cl)c4C3)cn2)C(F)(F)F)C1` (single isomer, unassigned) [Example 335] showed an IC50 [1] of 14 nM and an IC50 ([2]; Homo sapiens, Jurkat, 48 h) of 42 nM.

`CN1CC(C(=O)N(C)[C@@H](c2ccc(N[C@H]3Cc4ccccc4C3(C)C)cn2)C(F)(F)F)CCC1=O` (single isomer, unassigned) [Example 253] gave an IC50 [1] of 66 nM and an IC50 ([2]; 48 hours) of 420 nM.

Molecule `CCN(C(=O)C1CCS(=O)(=O)CC1)[C@@H](c1ccc(NC2Cc3ccccc3C2(C)C)cn1)C(F)(F)F` (single isomer, unassigned) [Example 189] has an IC50 [1] of 91 nM and an IC50 ([2]; 48 hours) of 3000 nM.

`CN(C(=O)C1CCS(=O)(=O)CC1)[C@@H](c1ccc(NC2Cc3ccc(Cl)c(C4CC4)c3C2)cn1)C(F)(F)F` (single isomer, unassigned) [Example 306] showed an IC50 [1] of 9 nM and an IC50 ([2]; Homo sapiens, Jurkat, 48 h) of 200 nM.

`CN(C(=O)C1CCS(=O)(=O)CC1)[C@@H](c1ccc(NC2Cc3cccc(C4CC4)c3C2)cn1)C(F)(F)F` (single isomer, unassigned) [Example 254] gave an IC50 [1] of 53 nM and an IC50 ([2]; Homo sapiens, Jurkat, 48 h) of 1400 nM.

Work on `CC(=O)N1CCC12CC(C(=O)N(C)[C@@H](c1ccc(NC3Cc4ccccc4C3(C)C)cn1)C(F)(F)F)C2` (single isomer, unassigned) [Example 235] yielded an IC50 [1] of 60 nM and an IC50 ([2]; Homo sapiens, Jurkat, 48 h) of 1000 nM.

For `CN(C(=O)[C@H]1CCC(=O)NC1)[C@@H](c1ccc(NC2Cc3ccc(Cl)c(F)c3C2)cn1)C(F)(F)F` (single isomer, unassigned) [Example 337], the IC50 [1] was 51 nM and the IC50 ([2]; Homo sapiens, Jurkat, 48 h) was 170 nM.

Work on `CN(C(=O)C1CN(C(=O)C2CCOC2)C1)[C@@H](c1ccc(NC2Cc3ccc(Cl)c(Cl)c3C2)cn1)C(F)(F)F` (single isomer, unassigned) [Example 353] yielded an IC50 [1] of 33 nM and an IC50 ([2]; 48 hours) of 63 nM.

With `CN(C(=O)C1CCNC(=O)C1)[C@@H](c1ccc(NC2Cc3ccccc3C2(C)C)cn1)C(F)(F)F` (single isomer, unassigned) [Example 119] the IC50 [1] was 150 nM and the IC50 ([2]; 48 hours) was 1720 nM.

`CN(C(=O)C1CNC(=O)O1)[C@@H](c1ccc(N[C@@H]2Cc3ccccc3C2(C)C)cn1)C(F)(F)F` (single isomer, unassigned) [Example 110] was tested, and the IC50 [1] was 16 nM and the IC50 ([2]; 48 hours) was 149 nM.

Work on `CN(C(=O)C1CCS(=O)(=O)C1)[C@@H](c1ccc(NC2Cc3ccc(Cl)c(Cl)c3C2)cn1)C(F)(F)F` (single isomer, unassigned) [Example 358] yielded an IC50 [1] of 55 nM and an IC50 ([2]; 48 hours) of 250 nM.

For `CN(C(=O)C1CCS(=O)(=O)CC1)[C@@H](c1ccc(NC2Cc3ccc(Cl)cc3C2)nc1)C(F)(F)F` (single isomer, unassigned) [Example 289], the IC50 [1] was 45 nM and the IC50 ([2]; Homo sapiens, Jurkat, 48 h) was 300 nM.

`CN(C(=O)[C@@H]1CNC(=O)C1)[C@@H](c1ccc(NC2Cc3ccc(Cl)c(F)c3C2)cn1)C(F)(F)F` (single isomer, unassigned) [Example 317] showed an IC50 [1] of 72 nM and an IC50 ([2]; Homo sapiens, Jurkat, 48 h) of 113 nM.

Molecule `CN(C(=O)[C@H]1C[C@@]2(COC(=O)N2)C1)[C@@H](c1ccc(NC2Cc3ccccc3C2(C)C)cn1)C(F)(F)F` (single isomer, unassigned) [Example 208] has an IC50 [1] of 27 nM and an IC50 ([2]; Homo sapiens, Jurkat, 48 h) of 250 nM.

`CN(C(=O)C1CCCNC1)[C@@H](c1ccc(NC2Cc3ccccc3C2(C)C)cn1)C(F)(F)F` (single isomer, unassigned) [Example 124] showed an IC50 [1] of 190 nM and an IC50 ([2]; 48 hours) of 1290 nM.

Molecule `CN(C(=O)[C@H]1C[C@]2(CCN2C)C1)[C@@H](c1ccc(NC2Cc3ccccc3C2(C)C)cn1)C(F)(F)F` (single isomer, unassigned) [Example 159] has an IC50 [1] of 140 nM and an IC50 ([2]; Homo sapiens, Jurkat, 48 h) of 1160 nM.

For `CN(C(=O)C1CCNC(=O)C1)[C@@H](c1ccc(N[C@H]2Cc3ccc(Cl)cc3C2)cn1)C(F)(F)F` (single isomer, unassigned) [Example 314], the IC50 [1] was 150 nM and the IC50 ([2]; Homo sapiens, Jurkat, 48 h) was 380 nM.

`CN1C(=O)CCC1C(=O)N(C)[C@@H](c1ccc(N[C@H]2Cc3ccccc3C2(C)C)cn1)C(F)(F)F` (single isomer, unassigned) [Example 225] was tested, and the IC50 [1] was 63 nM and the IC50 ([2]; 48 hours) was 520 nM.

In the case of `CN(C(=O)C1CNC(=O)CO1)[C@@H](c1ccc(NC2Cc3ccccc3C2(C)C)cn1)C(F)(F)F` (single isomer, unassigned) [Example 136], the IC50 [1] is reported as 36 nM and the IC50 ([2]; 48 hours) is reported as 310 nM.

`CN(C(=O)C1CCS(=O)(=O)CC1)[C@@H](c1ccc(NC2Cc3ccc(F)c(F)c3C2)cn1)C(F)(F)F` (single isomer, unassigned) [Example 261] showed an IC50 [1] of 82 nM and an IC50 ([2]; 48 hours) of 1410 nM.

In the case of `CN(C(=O)C12CC(NS(C)(=O)=O)(C1)C2)[C@@H](c1ccc(N[C@H]2Cc3ccccc3C2(C)C)cn1)C(F)(F)F` [Example 233, N—((S)-1-(5-(((S)-1,1-dimethyl-2,3-dihydro-1H-inden-2-yl)amino)pyridin-2-yl)-2,2,2-trifluoroethyl)-N-methyl-3-(methylsulfonamido)bicyclo[1.1.1]pentane-1-carboxamide], the IC50 [1] is reported as 20 nM and the IC50 ([2]; Homo sapiens, Jurkat, 48 h) is reported as 170 nM.

With `CNC(=O)N1CC(C(=O)N(C)[C@@H](c2ccc(NC3Cc4ccccc4C3(C)C)cn2)C(F)(F)F)C1` (single isomer, unassigned) [Example 227] the IC50 [1] was 18 nM and the IC50 ([2]; 48 hours) was 99 nM.

Work on `CN(C(=O)C12CC(NS(C)(=O)=O)(C1)C2)[C@@H](c1ccc(N[C@H]2Cc3ccc(Cl)cc3C2)cn1)C(F)(F)F` [Example 299, N—((S)-1-(5-(((S)-5-Chloro-2,3-dihydro-1H-inden-2-yl)amino)pyridin-2-yl)-2,2,2-trifluoroethyl)-N-methyl-3-(methylsulfonamido)bicyclo[1.1.1]pentane-1-carboxamide] yielded an IC50 [1] of 94 nM and an IC50 ([2]; Homo sapiens, Jurkat, 48 h) of 430 nM.

For `CN(C(=O)[C@H]1C[C@H](N(C)C)C1)[C@@H](c1ccc(NC2Cc3ccccc3C2(C)C)nc1)C(F)(F)F` (single isomer, unassigned) [Example 114], the IC50 [1] was 190 nM and the IC50 ([2]; Homo sapiens, Jurkat, 48 h) was 1020 nM.

Molecule `CN(C(=O)C1CCS(=O)(=O)CC1)[C@@H](c1ccc(NC2Cc3ccc(Cl)c(C(F)(F)F)c3C2)cn1)C(F)(F)F` (single isomer, unassigned) [Example 312] has an IC50 [1] of 15 nM and an IC50 ([2]; Homo sapiens, Jurkat, 48 h) of 350 nM.

With `CN(C(=O)C1CC2(CNC(=O)OC2)C1)[C@@H](c1ccc(NC2Cc3ccccc3C2(C)C)nc1)C(F)(F)F` (single isomer, unassigned) [Example 175] the IC50 [1] was 54 nM and the IC50 ([2]; 48 hours) was 810 nM.

For `CN(C(=O)[C@H]1C[C@@]2(CCN2C)C1)[C@@H](c1ccc(NC2Cc3ccccc3C2(C)C)cn1)C(F)(F)F` (single isomer, unassigned) [Example 157], the IC50 [1] was 64 nM and the IC50 ([2]; 48 hours) was 770 nM.

`CN(C(=O)C1CCS(=O)(=O)CC1)[C@@H](c1ccc(NC2Cc3cccc(C(F)(F)F)c3C2)cn1)C(F)(F)F` (single isomer, unassigned) [Example 191] showed an IC50 [1] of 26 nM and an IC50 ([2]; Homo sapiens, Jurkat, 48 h) of 740 nM.

In the case of `CN(C(=O)C1C2CS(=O)(=O)CC21)[C@@H](c1ccc(NC2Cc3ccccc3C2(C)C)cn1)C(F)(F)F` (single isomer, unassigned) [Example 216], the IC50 [1] is reported as 51 nM and the IC50 ([2]; 48 hours) is reported as 1900 nM.
